Experimental data taken from patent US8338422B2, “Indolin-2-ones and aza-indolin-2-ones” (Janssen Pharmaceutica NV, priority 2007, dated 2012).

Key:
PLK4 (h) = PLK4 (h) (Homo sapiens, UniProt O00444); assay: PLK-4 human kinase assay (SPA); assay type: biochemical; conditions: for IC50: read-out: PLK4 pIC50 (converted)
How it was run: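 Radiometric readout: 33P-labelled peptide captured on streptavidin SPA beads after EDTA stop, imaged by Leadseeker. Reaction ran 60 min at room temperature in Hepes pH 8.0 buffer. It contained 1 μM ATP with 2 nM [γ-33P]ATP, 10 μM biotinylated peptide and PLK4 (h) at 19 μg/ml.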

AuroraB (h) = AuroraB (h) (Homo sapiens, UniProt Q96GD4); assay: Aurora-B human kinase assay (SPA); assay type: biochemical; conditions: for IC50: read-out: AuroraB pIC50 (converted)
Chain of AuroraB (h) (Q96GD4 whole entry): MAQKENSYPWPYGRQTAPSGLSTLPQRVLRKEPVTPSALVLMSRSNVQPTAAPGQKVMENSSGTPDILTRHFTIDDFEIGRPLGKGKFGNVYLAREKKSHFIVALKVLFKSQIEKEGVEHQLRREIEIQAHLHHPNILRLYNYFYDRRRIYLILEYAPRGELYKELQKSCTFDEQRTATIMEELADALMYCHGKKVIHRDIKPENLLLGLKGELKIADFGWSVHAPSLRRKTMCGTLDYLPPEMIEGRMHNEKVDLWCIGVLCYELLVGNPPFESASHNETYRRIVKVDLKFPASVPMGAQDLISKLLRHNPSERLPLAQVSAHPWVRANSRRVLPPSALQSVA
How it was run: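 33P-phosphorylated biotin-substrate captured on streptavidin PVT SPA beads after EDTA-containing stop and imaged on Leadseeker. Reaction: 60 min at room temperature, Hepes pH 7.5 with Mg2+/Mn2+. Conditions: 0.5 μM ATP plus 2.2 nM [γ-33P]ATP, 3 μM substrate, 0.5 μg/ml human AuroraB.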

GSK3β (h) = GSK3β (h) (Homo sapiens, UniProt P49841); assay: GSK-3β human kinase assay (SPA); assay type: biochemical; conditions: for IC50: read-out: GSK3B pIC50 (converted)
Chain of GSK3β (h) (P49841 whole entry): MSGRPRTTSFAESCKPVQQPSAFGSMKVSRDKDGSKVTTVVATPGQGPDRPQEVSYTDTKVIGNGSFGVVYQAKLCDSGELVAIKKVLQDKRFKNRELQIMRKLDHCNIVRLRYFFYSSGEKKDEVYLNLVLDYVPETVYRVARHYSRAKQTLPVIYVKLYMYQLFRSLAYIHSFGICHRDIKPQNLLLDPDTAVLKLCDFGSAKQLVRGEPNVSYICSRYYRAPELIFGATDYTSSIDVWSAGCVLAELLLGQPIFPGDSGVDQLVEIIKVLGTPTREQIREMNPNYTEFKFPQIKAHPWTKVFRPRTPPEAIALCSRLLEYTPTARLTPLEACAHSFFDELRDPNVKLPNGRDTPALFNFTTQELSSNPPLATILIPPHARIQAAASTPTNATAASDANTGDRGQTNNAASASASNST
How it was run: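 Radiometric SPA read-out: after EDTA stop, biotinylated 33P-labelled peptide bound streptavidin PVT beads and was imaged on Leadseeker. Reaction: 60 min, room temperature, GSK3β (h) at 1 μg/ml, 1 μM substrate peptide, 1 μM ATP with 2 nM [γ-33P]ATP, Tris pH 7.4/MgCl2/DTT buffer.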

CDK1/CyclinB (h) = CDK1/CyclinB (h) (Homo sapiens, UniProt P06493); assay: CDK1/CyclinB human kinase assay (FRET); assay type: biochemical; conditions: for IC50: read-out: CDK1 pIC50 (converted)
Chain of CDK1/CyclinB (h) (P06493 whole entry): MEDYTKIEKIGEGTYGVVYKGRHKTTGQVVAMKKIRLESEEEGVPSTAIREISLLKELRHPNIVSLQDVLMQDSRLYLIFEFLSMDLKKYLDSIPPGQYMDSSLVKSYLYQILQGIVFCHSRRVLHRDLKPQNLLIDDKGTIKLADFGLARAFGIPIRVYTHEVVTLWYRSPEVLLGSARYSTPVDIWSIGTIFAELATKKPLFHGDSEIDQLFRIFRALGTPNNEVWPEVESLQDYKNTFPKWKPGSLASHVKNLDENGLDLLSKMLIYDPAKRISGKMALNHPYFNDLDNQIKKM
Chain of CDK1/CyclinB (h) (P14635 whole entry partner): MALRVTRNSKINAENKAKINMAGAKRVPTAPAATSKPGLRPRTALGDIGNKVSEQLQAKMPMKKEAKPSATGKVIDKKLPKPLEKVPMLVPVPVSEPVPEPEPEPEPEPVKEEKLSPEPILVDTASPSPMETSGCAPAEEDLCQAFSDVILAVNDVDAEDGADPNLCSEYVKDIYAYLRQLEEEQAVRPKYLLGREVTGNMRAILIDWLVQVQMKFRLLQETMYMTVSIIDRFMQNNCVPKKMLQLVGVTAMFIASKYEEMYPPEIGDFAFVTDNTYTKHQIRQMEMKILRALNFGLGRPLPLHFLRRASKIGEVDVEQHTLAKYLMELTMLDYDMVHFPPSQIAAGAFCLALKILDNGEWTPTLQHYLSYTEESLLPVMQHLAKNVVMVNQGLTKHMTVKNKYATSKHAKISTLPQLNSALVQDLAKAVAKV
How it was run: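 Kinase activity was read as the 460/538 nm emission ratio after protease cleavage of unphosphorylated peptide (60 min development). The reaction ran 60 min at room temperature with 10 μM ATP, 2 μM Ser/Thr peptide 12 and 0.2 μg/ml enzyme in Hepes pH 7.5 buffer with MgCl2, EGTA, Brij-35.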

A2780 = assay: Cellular proliferation assay (Alamar blue), A2780; assay type: cell-based; conditions: A2780 cells, 72 hours with compound, 10% FCS; for IC50: Homo sapiens, A2780, 72 h, read-out: pIC50 A2780 (converted)
Description: (§1) […] functional properties of these compounds was tested in cellular proliferation assays on a panel of different cell lines in the presence of 10% FCS serum (37° C. and 5% (v/v) CO2). In a first step these cells were seeded and incubated for 24 hours in the absence of compound. In the second step the cells were incubated for 72 hours with the compounds to be tested for 72 hours. The viable cell number was finally assessed in a standard Alamar blue cell viability assay.
(§2) The viable cell number was assessed by incubation for either 4 h (HCT-116, H1299, H460) 6 h (SKOV3, HT29, U87-MG, Colo205) or 24 h (A2780, PC3, MDA-MB-231, A549, MCF-7) with Alamar blue (Resazurin 9 μg/ml, K-Ferrocyanide 90 μM K-Ferricyanide 90 μM) and the converted fluorescent product was quantified on a fluorescent plate readed (544 nm/590 nm). Effect of the compounds is calculated as of on control cells.

HCT-116 = assay: Cellular proliferation assay (Alamar blue), HCT-116; assay type: cell-based; conditions: HCT-116 cells, 72 hours with compound, 10% FCS; for IC50: Homo sapiens, HCT-116, 72 h, read-out: pIC50 HCT-116 (converted)
Description: as §1, §2

H1299 = assay: Cellular proliferation assay (Alamar blue), H1299; assay type: cell-based; conditions: H1299 cells, 72 hours with compound, 10% FCS; for IC50: Homo sapiens, NCI-H1299, 72 h, read-out: pIC50 H1299 (converted)
Description: as §1, §2

MDA/MB231 = assay: Cellular proliferation assay (Alamar blue), MDA/MB231; assay type: cell-based; conditions: MDA/MB231 cells, 72 hours with compound, 10% FCS; for IC50: Homo sapiens, MDA-MB-231, 72 h, read-out: pIC50 MDA/MB231 (converted)
Description: as §1, §2

U87MG = assay: Cellular proliferation assay (Alamar blue), U87MG; assay type: cell-based; conditions: U87MG cells, 72 hours with compound, 10% FCS; for IC50: Homo sapiens, U-87 MG, 72 h, read-out: pIC50 U87MG (converted)
Description: as §1, §2

PC-3 = assay: Cellular proliferation assay (Alamar blue), PC-3; assay type: cell-based; conditions: PC-3 cells, 72 hours with compound, 10% FCS; for IC50: Homo sapiens, PC-3, 72 h, read-out: pIC50 PC-3 (converted)
Description: as §1, §2

Chain of PLK4 (h) (O00444 whole entry): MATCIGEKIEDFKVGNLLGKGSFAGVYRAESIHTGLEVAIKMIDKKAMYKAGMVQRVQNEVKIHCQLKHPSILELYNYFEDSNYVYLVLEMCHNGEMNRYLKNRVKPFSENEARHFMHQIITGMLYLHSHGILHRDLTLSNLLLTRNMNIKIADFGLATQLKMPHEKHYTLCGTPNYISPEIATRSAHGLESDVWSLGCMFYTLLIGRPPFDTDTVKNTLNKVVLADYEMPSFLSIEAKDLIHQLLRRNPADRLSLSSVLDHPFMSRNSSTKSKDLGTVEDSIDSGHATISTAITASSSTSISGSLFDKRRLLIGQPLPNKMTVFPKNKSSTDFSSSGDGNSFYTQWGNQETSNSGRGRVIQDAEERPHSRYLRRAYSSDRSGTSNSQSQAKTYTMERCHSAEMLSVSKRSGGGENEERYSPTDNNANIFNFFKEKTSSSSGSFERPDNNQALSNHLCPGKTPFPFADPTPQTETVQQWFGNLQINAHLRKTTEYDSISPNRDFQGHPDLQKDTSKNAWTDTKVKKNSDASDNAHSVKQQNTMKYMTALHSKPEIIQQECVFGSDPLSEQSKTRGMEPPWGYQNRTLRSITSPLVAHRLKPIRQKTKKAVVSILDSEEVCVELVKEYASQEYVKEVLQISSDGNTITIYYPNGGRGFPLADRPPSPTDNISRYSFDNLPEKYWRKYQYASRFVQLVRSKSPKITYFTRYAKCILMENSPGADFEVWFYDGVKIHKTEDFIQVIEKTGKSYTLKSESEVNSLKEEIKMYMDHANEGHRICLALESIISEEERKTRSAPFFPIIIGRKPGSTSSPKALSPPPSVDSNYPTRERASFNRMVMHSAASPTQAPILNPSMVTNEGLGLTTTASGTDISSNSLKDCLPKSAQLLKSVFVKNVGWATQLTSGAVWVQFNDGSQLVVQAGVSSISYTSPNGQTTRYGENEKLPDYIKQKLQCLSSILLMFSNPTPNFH

| IC50 (PLK4 (h)) | IC50 (AuroraB (h)) | IC50 (GSK3β (h)) | IC50 (CDK1/CyclinB (h)) | IC50 (A2780) | IC50 (HCT-116) | IC50 (H1299) | IC50 (U87MG) | IC50 (PC-3) | SMILES | PLK4 pIC50 (PLK4 (h)) | AuroraB pIC50 (AuroraB (h)) | GSK3B pIC50 (GSK3β (h)) | CDK1 pIC50 (CDK1/CyclinB (h)) | pIC50 A2780 (A2780) | pIC50 HCT-116 (HCT-116) | pIC50 H1299 (H1299) | pIC50 MDA/MB231 (MDA/MB231) | pIC50 U87MG (U87MG) | pIC50 PC-3 (PC-3) | IC50 (MDA/MB231) |
| --- | --- | --- | --- | --- | --- | --- | --- | --- | --- | --- | --- | --- | --- | --- | --- | --- | --- | --- | --- | --- |
| – | – | – | – | – | – | – | – | – | CN1CCNc2ncnc3c2C(=CNc2cccc(c2)OCCCC1=O)C(=O)N3 (mixture of isomers) [Compound 58] | 6.75 | 6.33 | 6.88 | 6.16 | 6.2 | 6.17 | 5.89 | <5 | 5.13 | <5 | – |
| – | – | – | – | – | – | – | – | – | CN1CCCNc2ncnc3c2C(=CNc2ccc(N4CCOCC4)c(c2)OCCCC1=O)C(=O)N3 (mixture of isomers) [Compound 124] | 7.34 | 6.13 | 7.33 | 7.53 | 5.94 | 6.21 | 6.89 | 5.37 | 6.16 | 6.02 | – |
| – | – | – | – | – | – | – | – | – | COc1cc2cc(c1OC)OCCCCC(=O)N(C)CCNc1ncnc3c1C(=CN2)C(=O)N3 (mixture of isomers) [Compound 129] | 5.71 | 5.26 | <5 | <5 | <5 | <5 | 5.65 | <5 | 5.42 | <5 | – |
| – | – | – | – | – | – | – | – | – | COc1cc2cc(c1OC)OCCCCC(=O)N(C)CCCNc1ncnc3c1C(=CN2)C(=O)N3 (mixture of isomers) [Compound 134] | 6.6 | 6.59 | 5.35 | 5.68 | 5.07 | 5.79 | 5.76 | 5.03 | <5 | 5.44 | – |
| – | – | – | – | – | – | – | – | – | CN1CCN(c2ccc3cc2OCCCCC(=O)N(C)CCNc2ncnc4c2C(=CN3)C(=O)N4)CC1 (mixture of isomers) [Compound 135] | 6.67 | <5 | 6.2 | <5 | <5 | 5.21 | 5.31 | <5 | <5 | <5 | – |
| – | – | – | – | – | – | – | – | – | CN1CCN(c2ccc3cc2OCCCCC(=O)N(C)CCCNc2ncnc4c2C(=CN3)C(=O)N4)CC1 (mixture of isomers) [Compound 136] | 7.19 | 5.55 | 7.23 | 5.88 | 5.89 | 6.44 | 5.67 | 5.55 | 6.54 | 5.39 | – |
| – | – | – | – | – | – | – | – | – | CN1CCN(c2ccc3cc2OCCCC(=O)N(C)CCNc2ncnc4c2C(=CN3)C(=O)N4)CC1 (mixture of isomers) [Compound 137] | 7.3 | ~5 | 6.405 | 5.83 | 5.61 | 6.04 | 5.73 | 5.31 | 5.94 | <5 | – |
| – | – | – | – | – | – | – | – | – | CN1CCN(c2ccc3cc2OCCCCCC(=O)N(C)CCCNc2ncnc4c2C(=CN3)C(=O)N4)CC1 (mixture of isomers) [Compound 138] | 6.74 | <5 | 6.75 | 5.8 | 5.16 | 5.52 | <5 | <5 | 6.05 | <5 | – |
| – | – | – | – | – | – | – | – | – | CN1CCCCCC(=O)N(C)CCCNc2ncnc3c2C(=CNc2ccc(N4CCOCC4)c(c2)C1)C(=O)N3 (mixture of isomers) [Compound 139] | 6.64 | <5 | 5.87 | <5 | 5.08 | 5.51 | <5 | <5 | 5.35 | <5 | – |
| – | – | – | – | – | – | – | – | – | COc1ccc2cc1OCCCC(=O)N(C(C)C)CCCNc1ncnc3c1C(=CN2)C(=O)N3 (mixture of isomers) [Compound 144] | 7.03 | 7.25 | 7.32 | 6.12 | 5.87 | 6.32 | 6.56 | 5.92 | 5.89 | 6.14 | – |
| – | – | – | – | – | – | – | – | – | COc1ccc2cc1OCCCC(=O)N(C1CCCCC1)CCCNc1ncnc3c1C(=CN2)C(=O)N3 (mixture of isomers) [Compound 145] | 6.61 | 6.41 | 6.4 | <5 | 5.53 | 6.04 | 6.08 | 5.73 | 5.45 | 6.04 | – |
| – | – | – | – | – | – | – | – | – | COc1cc2cc(c1OC)OCCCC(=O)NCCCNc1ncnc3c1C(=CN2)C(=O)N3 (mixture of isomers) [Compound 147] | 6.95 | 6.6 | 6.5 | 6.91 | 5.37 | 5.90 | 5.97 | <5 | 5.35 | 5.42 | – |
| – | – | – | – | – | – | – | – | – | COc1cc2cc(c1OC)OCC(=O)N(C)CCCCNc1ncnc3c1C(=CN2)C(=O)N3 (mixture of isomers) [Compound 150] | <5 | 5.23 | <5 | <5 | <5 | <5 | <5 | <5 | <5 | <5 | – |
| 2.24 µM | > 10 µM | 2 µM | > 10 µM | > 10 µM | > 10 µM | > 10 µM | > 10 µM | > 10 µM | CN1CCNC(=O)CCCCCCOc2cccc(c2)N/C=C2\C(=O)Nc3ncnc1c32 [Compound 36] | – | – | – | – | – | – | – | – | – | – | > 10 µM |
| 0.55 µM | 0.214 µM | 0.0851 µM | 2.14 µM | 7.59 µM | 6.03 µM | 3.16 µM | 1.82 µM | 9.55 µM | COc1ccc2cc1OCCCCCC(=O)N(C)CCNc1ncnc3c1/C(=C/N2)C(=O)N3 [Compound 37] | – | – | – | – | – | – | – | – | – | – | > 10 µM |
| 2.63 µM | > 10 µM | 3.63 µM | > 10 µM | > 10 µM | > 10 µM | > 10 µM | > 10 µM | > 10 µM | COc1ccc2cc1OCCCC(=O)NCCN(C)c1ncnc3c1/C(=C/N2)C(=O)N3 [Compound 38] | – | – | – | – | – | – | – | – | – | – | > 10 µM |
